This test has as its target T1, GST-RIPK1 (recombinant GST-RIPK1 kinase domain (residues 1-327)) (Homo sapiens, UniProt Q13546).
T1 construct: recombinant GST-RIPK1 kinase domain (residues 1-327) enzyme; made in house; host or cells: baculovirus-transfected Sf21 insect cells
T1 sequence (Q13546 1-327): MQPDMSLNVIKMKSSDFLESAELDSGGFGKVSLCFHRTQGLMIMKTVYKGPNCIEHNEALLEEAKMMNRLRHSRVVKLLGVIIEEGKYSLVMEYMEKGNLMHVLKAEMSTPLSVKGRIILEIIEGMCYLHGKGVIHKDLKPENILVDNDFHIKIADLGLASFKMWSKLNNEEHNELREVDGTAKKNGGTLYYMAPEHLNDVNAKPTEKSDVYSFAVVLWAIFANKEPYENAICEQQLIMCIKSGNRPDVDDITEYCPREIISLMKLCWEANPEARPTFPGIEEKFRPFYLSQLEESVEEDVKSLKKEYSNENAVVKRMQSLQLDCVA
Kind of test: RIPK1-ADP-Glo enzymatic assay. The test is classed as biochemical. Particulars: 25 nM GST-RIPK1, 300 μM ATP, 3 μM dephosphorylated-MBP; 30 minutes pre-incubation, 150 minutes reaction; ten-point titration. On the procedure:
The enzymatic activity of RIPK1 is measured using an assay derived from ADP-Glo kit (Promega™), which provides a luminescent-based ADP detection system. Specifically, the ADP generated by RIPK1 kinase is proportionally detected as luminescent signals in a homogenous fashion. In this context, the assessment of the inhibitory effect of small molecules (EC50) is measured by the effectiveness of the compounds to inhibit the ATP to ADP conversion by RIPK1. In this assay, the potency (EC50) of each compound was determined from a ten-point (1:3 serial dilution; top compound concentration of 100000 nM) titration curve using the following outlined procedure. To each well of a white ProxiPlus 384 well-plate, […] of compound (1% DMSO in final assay volume of 3 μL) was dispensed, followed by the addition of 2 μL of 1× assay buffer (25 mM Hepes 7.3, 20 mM MgCl2, 50 mM NaCl, 1 mM DTT, 0.005% Tween20, and 0.02% BSA) containing 37.5 nM of GST-RIPK1 (recombinant GST-RIPK1 kinase domain (residues 1-327) enzyme produced from baculovirus-transfected Sf21 cells: MW=62 kDa). Plates were placed in an ambient temperature humidified chamber for a 30 minutes pre-incubation with compound. Subsequently, each reaction was initiated by the addition of 1 μL 1×assay buffer containing 900 μM ATP and […]. The final reaction in each well of 3 μL consists of 25 nM of GST-RIPK1, 300 μM ATP, and 3 μM dephosphorylated-MBP. Kinase reactions were allowed to proceed for 150 minutes prior to adding ADP-Glo reagents per Promega's outlined kit protocol. Dose-response curves were generated by plotting percent effect (% product conversion; Y-axis) vs. Log10 compound concentrations (X-axis). EC50 values were calculated using a non-linear regression, four-parameters sigmoidal dose-response model.
In general, IC50 refers to the point on the concentration scale where inhibition reaches its midpoint. Consider `CC(C(=O)N1C[C@@H]2C[C@H]1c1cncc(C#N)c1O2)(C(F)F)C1CC1` (single isomer, unassigned) [Compound 1-88, (2S,5S)-4-(2-(R or S)-cyclopropyl-3,3-difluoro-2-methylpropanoyl)-2,3,4,5-tetrahydro-2,5-methanopyrido[3,4-f][1,4]oxazepine-9-carbonitrile], for which the 50% inhibitory concentration (IC50) is 96 nM.
As for `CC(C(=O)N1C[C@@H]2C[C@H]1c1cncc(C#N)c1O2)(C(F)F)C1CC1` (single isomer, unassigned) [Compound 1-89, (2S,5S)-4-(2-(R or S)-cyclopropyl-3,3-difluoro-2-methylpropanoyl)-2,3,4,5-tetrahydro-2,5-methanopyrido[3,4-f][1,4]oxazepine-9-carbonitrile], the IC50 is 43 nM.
Turning to `N#Cc1cncc2c1O[C@H]1C[C@@H]2N(C(=O)C2(F)CC(Oc3ccc(F)cc3F)C2)C1` (single isomer, unassigned) [Compound 1-106, (2S,5S)-4-(3-(2,4-difluorophenoxy)-1-(R or S)-fluorocyclobutane-1-carbonyl)-2,3,4,5-tetrahydro-2,5-methanopyrido[3,4-f][1,4]oxazepine-9-carbonitrile], the IC50 was found to be 60 nM.
As for `N#Cc1cncc2c1O[C@H]1C[C@@H]2N(C(=O)C2(F)CC(Oc3ccc(F)cc3F)C2)C1` (single isomer, unassigned) [Compound 1-107, (2S,5S)-4-(3-(2,4-difluorophenoxy)-1-(R or S)-fluorocyclobutane-1-carbonyl)-2,3,4,5-tetrahydro-2,5-methanopyrido[3,4-f][1,4]oxazepine-9-carbonitrile], the figure is 23 nM; as for `CCC(C)(C#N)C(=O)N1C[C@@H]2C[C@H]1c1cncc(C#N)c1O2` (single isomer, unassigned) [Compound 1-112, (2S,5S)-4-(2-(R or S)-cyano-2-methylbutanoyl)-2,3,4,5-tetrahydro-2,5-methanopyrido[3,4-f][1,4]oxazepine-9-carbonitrile], 252 nM.
As for `CCC(C)(C#N)C(=O)N1C[C@@H]2C[C@H]1c1cncc(C#N)c1O2` (single isomer, unassigned) [Compound 1-113, (2S,5S)-4-(2-(R or S)-cyano-2-methylbutanoyl)-2,3,4,5-tetrahydro-2,5-methanopyrido[3,4-f][1,4]oxazepine-9-carbonitrile], the figure is 156 nM.
As for `O=C(N1C[C@@H]2C[C@H]1c1cncc(F)c1O2)C12CCC(CC1(F)F)C2` (single isomer, unassigned) [Compound 2-18, (2,2-(S or R)-difluorobicyclo[2.2.1]heptan-1-yl)((28,5S)-9-fluoro-2,3-dihydro-2,5-methanopyrido[3,4-f][1,4]oxazepin-4(5H)-yl)methanone], the figure is 90 nM; as for `O=C(N1C[C@@H]2C[C@H]1c1cncc(F)c1O2)C12CCC(CC1(F)F)C2` (single isomer, unassigned) [Compound 2-19, (2,2-(S or R)-difluorobicyclo[2.2.1]heptan-1-yl)((2S,5S)-9-fluoro-2,3-dihydro-2,5-methanopyrido[3,4-f][1,4]oxazepin-4(5H)-yl)methanone], 453 nM; as for `CCC(C)(C#N)C(=O)N1C[C@@H]2C[C@H]1c1cncc(C#N)c1S2` (single isomer, unassigned) [Compound 4-9, (2S,5S)-4-(2-(R or S)-cyano-2-methylbutanoyl)-2,3,4,5-tetrahydro-2,5-methanopyrido[3,4-f][1,4]thiazepine-9-carbonitrile], 61 nM.
As to `CCC(C)(C#N)C(=O)N1C[C@@H]2C[C@H]1c1cncc(C#N)c1S2` (single isomer, unassigned) [Compound 4-10, (2S,5S)-4-(2-(R or S)-cyano-2-methylbutanoyl)-2,3,4,5-tetrahydro-2,5-methanopyrido[3,4-f][1,4]thiazepine-9-carbonitrile], the half-maximal inhibitory concentration (IC50) worked out at 43 nM.
As for `C[C@@H]1C2CN(C(=O)C(C)(C)C(F)F)[C@H]1c1cncc(C#N)c1O2` (single isomer, unassigned) [Compound 5-3], the figure is 432 nM; as for `C[C@@H]1C2CN(C(=O)C34CCC(C(F)(F)F)(CC3)C4)[C@H]1c1cncc(C#N)c1O2` (single isomer, unassigned) [Compound 5-4], 165 nM.
The value for `CC(C)(C(=O)N1C[C@H]2Cc3c(C#N)cncc3[C@@H]1C2)C(F)F` (single isomer, unassigned) [Compound 5-5] was 1360 nM; that for `N#Cc1cncc2c1C[C@H]1C[C@@H]2N(C(=O)C23CCC(C(F)(F)F)(CC2)C3)C1` (single isomer, unassigned) [Compound 5-6] was 123 nM; that for `CC(C)(C(=O)N1C[C@@H]2C[C@H]1c1cncc(C#N)c1O2)C(F)F` [Compound 1-1, (2S,5S)-4-(3,3-difluoro-2,2-dimethylpropanoyl)-2,3,4,5-tetrahydro-2,5-methanopyrido[3,4-f][1,4]oxazepine-9-carbonitrile] was 32 nM.
As for `N#Cc1cncc2c1O[C@H]1C[C@@H]2N(C(=O)C23CCC(C(F)(F)F)(CC2)C3)C1` [Compound 1-2, (2S,5S)-4-[4-(trifluoromethyl)bicyclo[2.2.1]heptane-1-carbonyl]-2,3,4,5-tetrahydro-2,5-methanopyrido[3,4-f][1,4]oxazepine-9-carbonitrile], the 50% inhibitory concentration (IC50) was 7 nM.
As for `CC(C)(C)C(=O)N1C[C@@H]2C[C@H]1c1cncc(C#N)c1O2` [Compound 1-3, (2S,5S)-4-(2,2-dimethylpropanoyl)-2,3,4,5-tetrahydro-2,5-methanopyrido[3,4-f][1,4]oxazepine-9-carbonitrile], the figure is 50 nM.
For `CCC(C)(C)C(=O)N1C[C@@H]2C[C@H]1c1cncc(C#N)c1O2` [Compound 1-4, (2S,5S)-4-(2,2-dimethylbutanoyl)-2,3,4,5-tetrahydro-2,5-methanopyrido[3,4-f][1,4]oxazepine-9-carbonitrile], the IC50 turned out to be 13 nM.
As for `CC1(C(=O)N2C[C@@H]3C[C@H]2c2cncc(C#N)c2O3)CCCC1` [Compound 1-5, (2S,5S)-4-(1-methylcyclopentane-1-carbonyl)-2,3,4,5-tetrahydro-2,5-methanopyrido[3,4-f][1,4]oxazepine-9-carbonitrile], the figure is 22 nM; as for `N#Cc1cncc2c1O[C@H]1C[C@@H]2N(C(=O)C23CCC(CC2)C3)C1` [Compound 1-6, (2S,5S)-4-(bicyclo[2.2.1]heptane-1-carbonyl)-2,3,4,5-tetrahydro-2,5-methanopyrido[3,4-f][1,4]oxazepine-9-carbonitrile], 11 nM.
For `N#Cc1cncc2c1O[C@H]1C[C@@H]2N(C(=O)C23CCC(F)(CC2)C3)C1` [Compound 1-7, (2S,5S)-4-(4-fluorobicyclo[2.2.1]heptane-1-carbonyl)-2,3,4,5-tetrahydro-2,5-methanopyrido[3,4-f][1,4]oxazepine-9-carbonitrile], the IC50 is 18 nM.
For `CC(C)(C(=O)N1C[C@@H]2C[C@H]1c1cncc(C#N)c1O2)C1CC1` [Compound 1-8, (2S,5S)-4-(2-cyclopropyl-2-methylpropanoyl)-2,3,4,5-tetrahydro-2,5-methanopyrido[3,4-f][1,4]oxazepine-9-carbonitrile], the half-inhibitory concentration (IC50) was found to be 29 nM.
Take `CC(C)(C(=O)N1C[C@@H]2C[C@H]1c1cncc(C#N)c1O2)C(F)(F)F` [Compound 1-9, (2S,5S)-4-(3,3,3-trifluoro-2,2-dimethylpropanoyl)-2,3,4,5-tetrahydro-2,5-methanopyrido[3,4-f][1,4]oxazepine-9-carbonitrile]: the half-maximal inhibitory concentration (IC50) was 20 nM.
Regarding `CC(F)(F)C(C)(C)C(=O)N1C[C@@H]2C[C@H]1c1cncc(C#N)c1O2` [Compound 1-10, (2S,5S)-4-(3,3-difluoro-2,2-dimethylbutanoyl)-2,3,4,5-tetrahydro-2,5-methanopyrido[3,4-f][1,4]oxazepine-9-carbonitrile], the 50% inhibitory concentration (IC50) worked out at 21 nM.
On to `N#Cc1cncc2c1O[C@H]1C[C@@H]2N(C(=O)C2(C(F)(F)F)CCC2)C1` [Compound 1-11, (2S,5S)-4-[1-(trifluoromethyl)cyclobutane-1-carbonyl]-2,3,4,5-tetrahydro-2,5-methanopyrido[3,4-f][1,4]oxazepine-9-carbonitrile], for which the IC50 was 62 nM.

Values taken from patent publication US20240228506A1, “RIPK1 INHIBITORS AND METHODS OF USE” (Merck Sharp & Dohme LLC, priority 2021, published 2024).
